Laboratory results from patent publication US20230322805A1, “NOVEL PYRIMIDODIAZEPINE DERIVATIVES OR USES THEREOF” (SPARK BIOPHARMA, INC., priority 2020, published 2023).

Legend:
[1] = tested on: BiFC-tau Venus HEK293 cells (tau aggregation, hTau441); test: BiFC-tau Venus HEK293 cell assay monitoring tau aggregation under thapsigargin; format: cell-based, human; details: for IC50 / activity at 10 µM: Homo sapiens; for IC50: HEK293, inhibition of BiFC-tau Venus fluorescence, 80 nM thapsigargin, table head prints no unit, μM, read-out: BiFC-tau intensity (IC50); for activity at 10 µM: HEK293-BiFC-tau-Venus cells co-treated with 10 μM compound and 80 nM thapsigargin for 24 hours, read-out: BiFC-tau intensity (%)
Experimental: Phenotype-based screening to monitor tau assembly was performed using BiFC-tau Venus HEK293 cells in a high-throughput manner. Cells were seeded in 384-well plates at a density of 2.8×10^3 cells/well in 40 μL medium for 24 hours. Cells were treated with 80 nM thapsigargin (Sigma-Aldrich) in 10 μL medium and then ˜ 3,000 pDOS library compounds (10 μM), including compounds according to the present invention, using a 0.1 μL pinning tool. For knockdown experiments, cells were transfected with 5 or 10 nM siRNA using Lipofectamine RNAiMAX and incubated for 48 hours before thapsigargin treatment. […] Plates were scanned on an INCell Analyzer 2000 (GE Healthcare) at λex/λem=490/525 nm for Venus fluorescence (for the FITC channel) and λex/λem=350/455 nm for nuclei (for the DAPI channel). Bright-field images were taken to confirm cell morphology, and images were analyzed to quantify Venus intensity per cell using developer software (GE Healthcare).
1-1. According to the method described in Examples 1-15 above, the expression of Venus-based bimolecular fluorescence complemented-tau (BiFC-tau) was confirmed using HEK293 human embryonic kidney cells, thereby phenotyping the phenotype-based screening was performed.
The N-terminal Venus (VN173) and C-terminal Venus (VC155) fragment sequences are fused with the full-length human tau (hTau441) sequence to form the BiFC-tau Venus HEK293 cell system. Soluble tau dimers can be measured by monitoring the turn-on/off signal of Venus fluorescence through co-expression of the two fused vectors, hTau441-VN173 and hTau441-VC1 55.
As a stimulator of tau aggregation, thapsigargin (TG; an ER stress inducer), a direct inhibitor of sarco/endoplasmic reticulum Ca2^+-ATPase, was used. This disrupts calcium homeostasis. Thapsigargin treatment induces tau dimerization (tau aggregation), which can be confirmed by BiFC-tau Venus fluorescence turn-on.

[2] = tested on: acute Alzheimer's mouse model; test: Acute Alzheimer's mouse model (acquisition and probe test); format: in vivo; details: acute Alzheimer's mouse model
Experimental: 7-1. Potential therapeutic effect of SB1617 in an acute Alzheimer's mouse model was identified, and the design for the experiment is schematically shown in FIG. 40
7-3. As a result of confirming the treatment efficacy through a probe test, after removing the platform, it was performed by recording how many times the mouse passed the position where the platform was […]

## Cc1ccc(S(=O)(=O)N2[C@H]3CNc4ncnc(N(C)Cc5ccccc5)c4[C@@H]2OC3)cc1 [Compound 101]
other
  melting point: 150 to 152 °C
[1]
  IC50: 9.1 µM
  activity at 10 µM: 65%

## COc1ccc(S(=O)(=O)N2[C@H]3CNc4ncnc(N(C)Cc5ccccc5)c4[C@@H]2OC3)cc1 [Compound 102]
other
  melting point: 121 to 123 °C
[1]
  activity at 10 µM: 79%

## CN(Cc1ccccc1)c1ncnc2c1[C@@H]1OC[C@H](CN2)N1S(=O)(=O)c1ccccc1[N+](=O)[O-] [Compound 103]
[1]
  activity at 10 µM: 102%

## CN(Cc1ccccc1)c1ncnc2c1[C@@H]1OC[C@H](CN2)N1S(=O)(=O)c1cccc([N+](=O)[O-])c1 [Compound 104]
[1]
  activity at 10 µM: 115%

## CN(Cc1ccccc1)c1ncnc2c1[C@@H]1OC[C@H](CN2)N1S(=O)(=O)c1ccc([N+](=O)[O-])cc1 [Compound 105]
other
  melting point: 97 to 99 °C
[1]
  IC50: 5.2 µM
  activity at 10 µM: 46%

## CN(Cc1ccccc1)c1ncnc2c1[C@@H]1OC[C@H](CN2)N1S(=O)(=O)c1ccc(F)cc1 [Compound 106]
other
  melting point: 105 to 107 °C
[1]
  activity at 10 µM: 81%

## CN(Cc1ccccc1)c1ncnc2c1[C@@H]1OC[C@H](CN2)N1S(C)(=O)=O [Compound 107]
other
  melting point: 136 to 138 °C
[1]
  activity at 10 µM: 94%
[1]; various concentrations with 80 nM TG for 20 hours
  change in Venus fluorescence intensity: the activity was lost

## CN(Cc1ccccc1)c1ncnc2c1[C@@H]1OC[C@H](CN2)N1S(=O)(=O)c1ccccc1 [Compound 108]
other
  melting point: 120 to 122 °C
[1]
  activity at 10 µM: 105%

## CN(Cc1ccccc1)c1ncnc2c1[C@@H]1OC[C@H](CN2)N1S(=O)(=O)Cc1ccccc1 [Compound 109]
other
  melting point: 78 to 80 °C
[1]
  activity at 10 µM: 84%

## CN(Cc1ccccc1)c1ncnc2c1[C@@H]1OC[C@H](CN2)N1S(=O)(=O)c1cccnc1 [Compound 110]
other
  melting point: 185 to 187 °C
[1]
  activity at 10 µM: 130%

## CN(Cc1ccccc1)c1ncnc2c1[C@@H]1OC[C@H](CN2)N1S(=O)(=O)c1cccs1 [Compound 111]
other
  melting point: 112 to 114 °C
[1]
  activity at 10 µM: 110%

## CN(C)c1ncnc2c1[C@@H]1OC[C@H](CN2)N1S(=O)(=O)c1ccc([N+](=O)[O-])cc1 [Compound 112]
other
  melting point: 118 to 120 °C
[1]
  activity at 10 µM: 90%

## CN(CCc1ccccc1)c1ncnc2c1[C@@H]1OC[C@H](CN2)N1S(=O)(=O)c1ccc([N+](=O)[O-])cc1 [Compound 113]
other
  melting point: 108 to 110 °C
[1]
  activity at 10 µM: 71%

## CC(C)N(Cc1ccccc1)c1ncnc2c1[C@@H]1OC[C@H](CN2)N1S(=O)(=O)c1ccc([N+](=O)[O-])cc1 [Compound 114]
other
  melting point: 85 to 87 °C
[1]
  IC50: 6.9 µM
  activity at 10 µM: 47%

## C=C(C)c1ncnc2c1[C@@H]1OC[C@H](CN2)N1S(=O)(=O)c1ccc([N+](=O)[O-])cc1 [Compound 115]
other
  melting point: 200 to 202 °C
[1]
  activity at 10 µM: 99%

## COc1ccc(-c2ncnc3c2[C@@H]2OC[C@H](CN3)N2S(=O)(=O)c2ccc([N+](=O)[O-])cc2)cc1 [Compound 116]
other
  melting point: 250 to 252 °C
[1]
  activity at 10 µM: 135%

## CN(Cc1ccc(F)cc1)c1ncnc2c1[C@@H]1OC[C@H](CN2)N1S(=O)(=O)c1ccc([N+](=O)[O-])cc1 [Compound 118]
other
  melting point: 102 to 104 °C
[1]
  IC50: 7.6 µM
  activity at 10 µM: 55%

## CN(Cc1ccc(N=[N+]=[N-])cc1)c1ncnc2c1[C@@H]1OC[C@H](CN2)N1S(=O)(=O)c1ccc([N+](=O)[O-])cc1 [Compound 119]
other
  melting point: 88 to 90 °C
[1]
  IC50: 4.6 µM
  activity at 10 µM: 56%

## CN(Cc1ccc(Cl)cc1)c1ncnc2c1[C@@H]1OC[C@H](CN2)N1S(=O)(=O)c1ccc(F)cc1 [Compound 120]
other
  melting point: 150 to 152 °C
[1]
  activity at 10 µM: 81%

## COc1ccc(S(=O)(=O)N2[C@H]3CNc4ncnc(N(C)Cc5ccc(Cl)cc5)c4[C@@H]2OC3)cc1 [Compound 121]
other
  melting point: 156 to 158 °C
[1]
  IC50: 6.6 µM
  activity at 10 µM: 51%

## CC(=O)N1C[C@H]2CO[C@@H](c3c(N(C)Cc4ccc(Cl)cc4)ncnc31)N2S(=O)(=O)c1ccc([N+](=O)[O-])cc1 [Compound 122]
other
  melting point: 105 to 107 °C
[1]
  activity at 10 µM: 81%

## CN(Cc1ccc(Cl)cc1)c1ncnc2c1[C@@H]1OC[C@H](CN2C(=O)C2CC2)N1S(=O)(=O)c1ccc([N+](=O)[O-])cc1 [Compound 123]
other
  melting point: 124 to 126 °C
[1]
  activity at 10 µM: 78%

## C#Cc1ccc(S(=O)(=O)N2[C@H]3CNc4ncnc(N(C)Cc5ccc(N=[N+]=[N-])cc5)c4[C@@H]2OC3)cc1 [Compound 124]
other
  melting point: 139 to 141 °C
[1]
  IC50: 8.1 µM
  activity at 10 µM: 50%

## CN(Cc1ccc(Cl)cc1)c1ncnc2c1[C@H]1OC[C@@H](CN2)N1S(=O)(=O)c1ccc([N+](=O)[O-])cc1 [Compound 125]
[1]
  activity at 10 µM: 98%

## C=CCOC(=O)N1[C@H]2CNc3ncnc(N(C)Cc4ccc(Cl)cc4)c3[C@@H]1OC2 [Compound 126]
[1]
  activity at 10 µM: 100%

## CN(Cc1ccc(Cl)cc1)c1ncnc2c1CN(S(=O)(=O)c1ccc([N+](=O)[O-])cc1)[C@H](CO)CN2 [Compound 127]
[1]
  activity at 10 µM: 100%

## CN(Cc1ccc(Cl)cc1)c1ncnc2c1[C@H]1OCC[C@@H](CN2)N1S(=O)(=O)c1ccc([N+](=O)[O-])cc1 [Compound 128]
[1]
  activity at 10 µM: 95%

## CN(Cc1ccc(Cl)cc1)c1ncnc2c1[C@@H]1OC[C@H](CN2C(=O)c2ccc(F)cc2)N1S(=O)(=O)c1ccc([N+](=O)[O-])cc1 [Compound 129]
[1]
  activity at 10 µM: 70%

## CCN1C[C@H]2CO[C@@H](c3c(N(C)Cc4ccc(Cl)cc4)ncnc31)N2S(=O)(=O)c1ccc([N+](=O)[O-])cc1 [Compound 130]
[1]
  activity at 10 µM: 70%

## CN(Cc1ccc(Cl)cc1)c1ncnc2c1[C@@H]1SC[C@H](CN2)N1S(=O)(=O)c1ccc([N+](=O)[O-])cc1 [Compound 131]
[1]
  activity at 10 µM: 98%

## CN(Cc1ccc(Cl)cc1)c1ncnc2c1[C@@H]1SC[C@@H](CN2)N1C(=O)OC(C)(C)C [Compound 132]
[1]
  activity at 10 µM: 80%

## CN(Cc1ccc(Cl)cc1)c1ncnc2c1[C@@H]1SC[C@H](CN2)N1C(=O)Nc1ccc([N+](=O)[O-])cc1 [Compound 133]
[1]
  activity at 10 µM: 94%

## CN(Cc1ccc(Cl)cc1)c1ncnc2c1[C@H]1N(S(=O)(=O)c3ccc([N+](=O)[O-])cc3)[C@@H](CN2)CS1(=O)=O [Compound 134]
[1]
  activity at 10 µM: 100%

## COc1ccc(CN(C)c2ncnc3c2[C@@H]2SC[C@H](CN3)N2S(=O)(=O)c2ccc([N+](=O)[O-])cc2)cc1 [Compound 135]
[1]
  activity at 10 µM: 57%

## CNc1ncnc2c1[C@@H]1OC[C@H](CN2)N1S(=O)(=O)c1ccc([N+](=O)[O-])cc1 [Compound 136]
[1]
  activity at 10 µM: 10%

## COc1cc2c(cc1OC)C(=O)C(CC1CCN(Cc3ccccc3)CC1)C2 (centres unmarked) [Donepezil, reference compound]
[2]
  learning ability (Acquisition test), rank order: WT >Donepezil >SB-1617>Vehicle
